Source: the supplement of paper PMC10307832

Experiments:
Assay in all cases: relative viability (nuclei count vs DMSO), 5 days (fraction); higher = more cells survive
EMC-BAC-2 = system: EMC-BAC-2
Summary of the method: (§1)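 For relative viability, nuclei counts in treated wells were divided by those in vehicle wells. Lung cancer cell lines had been pin-tool dosed in 1536-well plates the day after seeding and cultured for 5 days, then fixed and stained in one step (final 0.05% Triton X-100, 1% formaldehyde, 1 ug/ml Hoechst) and imaged at 4×. Doses were one drug alone or a fixed anchor-drug dose plus five library-drug doses (not always all listed) in √10 steps, and values are duplicate-plate medians.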

EPLC-272H = system: EPLC-272H
Summary of the method: as §1

HCC-44 = system: HCC-44
Summary of the method: as §1

LCLC-103H = system: LCLC-103H
Summary of the method: as §1

NCI-H23 = system: NCI-H23
Summary of the method: as §1

NCI-H322M = system: NCI-H322M
Summary of the method: as §1

NCI-H2085 = system: NCI-H2085
Summary of the method: as §1

SK-MES-1 = system: SK-MES-1
Summary of the method: as §1

NCI-H1993 = system: NCI-H1993
Summary of the method: as §1

NCI-H2405 = system: NCI-H2405
Summary of the method: as §1

H3255 = system: H3255
Summary of the method: as §1

NCI-H650 = system: NCI-H650
Summary of the method: as §1

COc1cc(N2CCC(C(N)=O)CC2)ccc1Nc1nc(N)c(Cl)c(Nc2ccccc2S(=O)(=O)C(C)C)n1 [HG-5-88-01] + Cc1cc(Nc2cc(N3CCN(C)CC3)nc(Sc3ccc(NC(=O)C4CC4)cc3)n2)n[nH]1 [Tozasertib] (partner 0.1 µM)
relative viability (EMC-BAC-2; first compound 0.04 µM): 0.296 | relative viability (EMC-BAC-2; first compound 0.1265 µM): 0.288 | relative viability (EMC-BAC-2; first compound 0.4 µM): 0.261 | relative viability (EMC-BAC-2; first compound 1.265 µM): 0.264 | relative viability (EMC-BAC-2; first compound 4 µM): 0.24 | relative viability (EPLC-272H; first compound 0.04 µM): 0.257 | relative viability (EPLC-272H; first compound 0.1265 µM): 0.301 | relative viability (EPLC-272H; first compound 0.4 µM): 0.323 | relative viability (EPLC-272H; first compound 1.265 µM): 0.141 | relative viability (EPLC-272H; first compound 4 µM): 0.063 | relative viability (HCC-44; first compound 0.04 µM): 1.1 | relative viability (HCC-44; first compound 0.1265 µM): 0.928 | relative viability (HCC-44; first compound 0.4 µM): 0.745 | relative viability (HCC-44; first compound 1.265 µM): 0.328 | relative viability (HCC-44; first compound 4 µM): 0.14 | relative viability (LCLC-103H; first compound 0.04 µM): 0.483 | relative viability (LCLC-103H; first compound 0.1265 µM): 0.511 | relative viability (LCLC-103H; first compound 0.4 µM): 0.386 | relative viability (LCLC-103H; first compound 1.265 µM): 0.611 | relative viability (LCLC-103H; first compound 4 µM): 0.345 | relative viability (NCI-H23; first compound 0.04 µM): 0.337 | relative viability (NCI-H23; first compound 0.1265 µM): 0.388 | relative viability (NCI-H23; first compound 0.4 µM): 0.32 | relative viability (NCI-H23; first compound 1.265 µM): 0.284 | relative viability (NCI-H23; first compound 4 µM): 0.251 | relative viability (NCI-H322M; first compound 0.04 µM): 0.456 | relative viability (NCI-H322M; first compound 0.1265 µM): 0.443 | relative viability (NCI-H322M; first compound 0.4 µM): 0.387 | relative viability (NCI-H322M; first compound 4 µM): 0.38 | relative viability (NCI-H2085; first compound 0.04 µM): 0.805 | relative viability (NCI-H2085; first compound 0.1265 µM): 0.784 | relative viability (NCI-H2085; first compound 0.4 µM): 0.776 | relative viability (NCI-H2085; first compound 1.265 µM): 0.696 | relative viability (NCI-H2085; first compound 4 µM): 0.391 | relative viability (SK-MES-1; first compound 0.04 µM): 0.843 | relative viability (SK-MES-1; first compound 0.1265 µM): 0.909 | relative viability (SK-MES-1; first compound 0.4 µM): 0.833 | relative viability (SK-MES-1; first compound 1.265 µM): 0.579 | relative viability (SK-MES-1; first compound 4 µM): 0.158 | relative viability (NCI-H1993; first compound 0.04 µM): 0.607 | relative viability (NCI-H1993; first compound 0.1265 µM): 0.635 | relative viability (NCI-H1993; first compound 0.4 µM): 0.595 | relative viability (NCI-H1993; first compound 1.265 µM): 0.556 | relative viability (NCI-H1993; first compound 4 µM): 0.535 | relative viability (NCI-H2405; first compound 0.04 µM): 0.765 | relative viability (NCI-H2405; first compound 0.1265 µM): 0.704 | relative viability (NCI-H2405; first compound 0.4 µM): 0.659 | relative viability (NCI-H2405; first compound 1.265 µM): 0.395 | relative viability (NCI-H2405; first compound 4 µM): 0.416 | relative viability (H3255; first compound 0.04 µM): 0.71 | relative viability (H3255; first compound 0.1265 µM): 0.791 | relative viability (H3255; first compound 0.4 µM): 0.616 | relative viability (H3255; first compound 4 µM): 0.731 | relative viability (NCI-H650; first compound 0.04 µM): 0.765 | relative viability (NCI-H650; first compound 0.1265 µM): 0.72
